pIC50: −log10 of the molar value.
Legend:
[1] = biological target: T1, Avi-KRAS WT (1-169) GppNHp/RAF1 RBD-3xFLAG (52-151) (Homo sapiens, UniProt P01116); assay: Raf1-KRAS WT-GppNHP disruption HTRF assay (Biological Example 1); assay type: binding; settings: KRAS WT, GppNHp-loaded; Table 11
T1 construct: Avi-KRAS WT (1-169)
Method: (§1) A protein:protein interaction (PPI) Homogeneous Time Resolved Fluorescence (HTRF) assay was used to determine the effectiveness of compounds of the present disclosure in disrupting KRAS protein and effector RAF1 binding.
(§2) The assay buffer included: 50 mM Tris pH 7.5, 100 mM NaCl, 5 mM MgCl2, 0.1% BSA, 0.01% Tween, and 10% DMSO. The bead buffer included: 50 mM Tris pH 7.5, and 0.01% Tween 20. Assay volume of 20 μL was used in a 384 well plate-low volume format.
(§3) The HTRF assay employed the following protocol:
(§4) Protein mix was prepared in assay buffer, and dispensed on plates, 10 μL per well, then incubated for 1 h at room temperature, with 700 rpm shaking, Reagents mix was prepared and dispensed on plates, 10 μL per well, then incubated for 1 h at room temperature, with 700 rpm shaking.
(§5) Data was reported as percentage of activity, with DMSO as 100%. Data was plotted and analyzed using Prism 8.

[2] = biological target: T2, Avi-KRAS G12D (1-169) GppNHp/RAF1 RBD-3xFLAG (52-151) (Homo sapiens, UniProt P01116, G12D); assay: Raf1-KRAS G12D-GppNHP disruption HTRF assay (Biological Example 1); assay type: binding; settings: KRAS G12D, GppNHp-loaded; Table 11
T2 construct: Avi-KRAS G12D (1-169)
T2 sequence (P01116 1-169 isoform P01116-2 G12D): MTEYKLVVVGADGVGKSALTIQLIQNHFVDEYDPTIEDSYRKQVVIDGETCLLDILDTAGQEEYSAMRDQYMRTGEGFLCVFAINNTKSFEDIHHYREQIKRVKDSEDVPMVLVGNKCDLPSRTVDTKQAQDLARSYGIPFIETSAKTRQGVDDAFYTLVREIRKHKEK
Method: as §1, §2, §3, §4, §5

[3] = system: GP2d cells (KRAS G12D); assay: Cell-based pERK HTRF assay in GP2d cell (Biological Example 2); settings: GP2d (KRAS G12D) cells, pERK HTRF
Method: A pERK assay (Perkin Elmer) was used to determine the effectiveness of compounds in disrupting KRAS G12D protein/effector signaling in cells.
On Day 1, cells (GP2d) were seeded into 96-well plates at 3×10^4 cells/well in 80 μL complete growth media (DMEM, 10% FBS).
On Day 2, cells were treated with compounds at 0.25% DMSO. The source plate was created with compounds diluted in media at 5-fold the final assay concentration. The compounds were run in a 9-point concentration curve starting at 1 μM or in a 9-point concentration curve starting at 100 nM, with a half-log dilution between concentrations. Twenty μL was transferred onto the cell plates (final volume in wells was 100 μL). Plates were harvested after 60 min incubation by aspirating media and adding kit-supplied 1x supplemented lysis buffer to all wells (50 μL per well). Plates were then placed on a plate shaker and incubated at 850 rpm for an additional 30 min.
Antibody mixture solution was prepared by diluting aliquoted d2 and Eu Cryptate antibodies 1:20 in kit supplied detection buffer, and mixing the diluted antibodies solutions (1:1 v:v).
Samples were homogenized by pipetting up and down and then transferred (16 μL of cell lysates) from the 96-well cell culture plate to two wells of the HTRF 384-well detection plate containing the antibody solution. Plates were centrifuged (524 g for 1 min) and allowed to incubate between 4 and 24 h at room temperature. Maximum signal is reached after 4 h incubation time and remains stable over a period of 24 hours. Therefore, readings can be made between 4 and 24 h of incubation. Plates were centrifuged again (524 g for Imin), then analyzed on the EnVision plate reader using the following settings: Excitation 320 nm, Bandwidth 75 nm; Emission 615 nm, Bandwidth 85 nm; Gain 100%; Flashes 100; Lag 60 μs.

[4] = biological target: T3, Avi-KRAS G12R (1-169) GppNHp/RAF1 RBD-3xFLAG (52-151) (Homo sapiens, UniProt P01116, G12R); assay: Raf1-KRAS G12R-GppNHP disruption HTRF assay (Biological Example 1); assay type: binding; settings: KRAS G12R, GppNHp-loaded; Table 11
T3 construct: Avi-KRAS G12R (1-169)
T3 sequence (P01116 1-169 isoform P01116-2 G12R): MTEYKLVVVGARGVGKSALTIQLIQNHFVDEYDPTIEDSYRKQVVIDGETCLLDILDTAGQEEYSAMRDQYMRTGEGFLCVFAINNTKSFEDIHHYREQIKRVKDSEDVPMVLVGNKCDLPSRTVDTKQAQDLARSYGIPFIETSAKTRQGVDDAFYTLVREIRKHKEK
Method: as §1, §2, §3, §4, §5

[5] = biological target: T4, Avi-KRAS G12V (1-169) GppNHp/RAF1 RBD-3xFLAG (52-151) (Homo sapiens, UniProt P01116, G12V); assay: Raf1-KRAS G12V-GppNHP disruption HTRF assay (Biological Example 1); assay type: binding; settings: KRAS G12V, GppNHp-loaded; Table 11
T4 construct: Avi-KRAS G12V (1-169)
T4 sequence (P01116 1-169 isoform P01116-2 G12V): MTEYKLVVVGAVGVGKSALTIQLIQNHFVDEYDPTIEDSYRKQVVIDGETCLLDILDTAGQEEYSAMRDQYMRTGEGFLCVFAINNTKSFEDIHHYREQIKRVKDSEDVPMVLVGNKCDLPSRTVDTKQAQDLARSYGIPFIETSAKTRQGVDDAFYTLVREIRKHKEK
Method: as §1, §2, §3, §4, §5

T1 sequence (P01116 1-169 isoform P01116-2): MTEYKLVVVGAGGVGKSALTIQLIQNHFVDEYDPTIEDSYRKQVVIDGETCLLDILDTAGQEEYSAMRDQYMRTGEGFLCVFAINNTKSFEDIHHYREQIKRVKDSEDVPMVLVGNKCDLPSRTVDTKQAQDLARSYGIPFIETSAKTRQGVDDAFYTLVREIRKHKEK

SMILES	pIC50 [1]	pIC50 [2]	pIC50 ([3]; GP2d)	pIC50 [4]	pIC50 [5]	pIC50 [3]
CCC(=O)N1C[C@H](C)N(c2nc(OC[C@@]34CCCN3C[C@H](F)C4)nc3c(F)c(-c4ccc(F)c5sc(N)c(C#N)c45)c(C(F)(F)F)cc23)C[C@H]1C (atropisomer, axis not shown) [Compound 99]	5.00 to 6.00	5.00 to 6.00	> 7.00	5.00 to 6.00	< 5.00	–
CN(c1nc(OC[C@@]23CCCN2C[C@H](F)C3)nc2c(F)c(-c3ccc(F)c4scc(C#N)c34)c(C(F)(F)F)cc12)[C@@H]1CCN(C(=O)CC#N)C1 [Compound 106]	< 5.00	< 5.00	< 6.00	< 5.00	< 5.00	–
CCN(CCCO)c1nc(OC[C@@]23CCCN2C[C@H](F)C3)nc2c(F)c(-c3ccc(F)c4sc(N)c(C#N)c34)c(C(F)(F)F)cc12 [Compound 175]	6.00 to 7.00	6.00 to 7.00	> 7.00	6.00 to 7.00	6.00 to 7.00	–
N#Cc1c(N)sc2c(F)ccc(-c3c(C(F)(F)F)cc4c(N5CCOCC5)nc(OC[C@@]56CCCN5C[C@H](F)C6)nc4c3F)c12 [Compound 90]	6.00 to 7.00	6.00 to 7.00	> 7.00	6.00 to 7.00	6.00 to 7.00	–
CN(c1nc(OC[C@@]23CCCN2C[C@H](F)C3)nc2cc(-c3ccc(F)c4sc(N)c(C#N)c34)c(C(F)(F)F)cc12)[C@H]1C[C@@H](O)C1 [Compound 33]	6.00 to 7.00	6.00 to 7.00	6.00 to 7.00	6.00 to 7.00	6.00 to 7.00	–
CC(=O)N1CCN(c2nc(OC[C@@]34CCCN3C[C@H](F)C4)nc3c(F)c(-c4ccc(F)c5sc(N)c(C#N)c45)c(C(F)(F)F)cc23)C[C@H]1CC#N [Compound 184]	< 5.00	5.00 to 6.00	6.00 to 7.00	< 5.00	< 5.00	–
CCN(CCO)c1nc(OC[C@@H]2C[C@@H](F)CN2C)nc2c(F)c(-c3ccc(F)c4sc(N)c(C#N)c34)c(C(F)(F)F)cc12 [Compound 177]	6.00 to 7.00	6.00 to 7.00	> 7.00	6.00 to 7.00	6.00 to 7.00	–
N#Cc1c(N)sc2c(F)ccc(-c3c(C(F)(F)F)cc4c(N5CCC(F)(F)CC5)nc(OC[C@@]56CCCN5C[C@H](F)C6)nc4c3F)c12 [Compound 150]	6.00 to 7.00	6.00 to 7.00	> 7.00	6.00 to 7.00	5.00 to 6.00	–
N#CC[C@@H]1CN(c2nc(OC[C@@]34CCCN3C[C@H](F)C4)nc3c(F)c(-c4ccc(F)c5sc(N)c(C#N)c45)c(C(F)(F)F)cc23)CCO1 [Compound 136]	6.00 to 7.00	6.00 to 7.00	> 7.00	6.00 to 7.00	5.00 to 6.00	–
CN(c1nc(OC[C@@]23CCCN2C[C@H](F)C3)nc2c(F)c(-c3ccc(F)c4scc(C#N)c34)c(C(F)(F)F)cc12)[C@@H]1CCN(C(=O)CO)C1 [Compound 107]	< 5.00	< 5.00	< 6.00	< 5.00	< 5.00	–

Continued, values first:

pIC50 [1]	pIC50 [2]	pIC50 ([3]; GP2d)	pIC50 [4]	pIC50 [5]	pIC50 [3]	SMILES
6.00 to 7.00	6.00 to 7.00	> 7.00	6.00 to 7.00	6.00 to 7.00	–	CN(c1nc(OC[C@@]23CCCN2C[C@H](F)C3)nc2c(F)c(-c3ccc(F)c4sc(N)c(C#N)c34)c(C(F)(F)F)cc12)[C@@H]1CCOC1 [Compound 132]
6.00 to 7.00	6.00 to 7.00	> 7.00	6.00 to 7.00	5.00 to 6.00	–	N#Cc1c(N)sc2c(F)ccc(-c3c(C(F)(F)F)cc4c(N5CC6CCC(C5)C6O)nc(OC[C@@]56CCCN5C[C@H](F)C6)nc4c3F)c12 (stereo partly shown) [Compound 128]
6.00 to 7.00	6.00 to 7.00	> 7.00	6.00 to 7.00	5.00 to 6.00	–	CO[C@H]1C[C@@H](N(C)c2nc(OC[C@@]34CCCN3C[C@H](F)C4)nc3c(F)c(-c4ccc(F)c5sc(N)c(C#N)c45)c(C(F)(F)F)cc23)C1 [Compound 27]
6.00 to 7.00	6.00 to 7.00	> 7.00	6.00 to 7.00	6.00 to 7.00	–	COC[C@@H]1[C@H](N(C)c2nc(OC[C@@]34CCCN3C[C@H](F)C4)nc3c(F)c(-c4ccc(F)c5sc(N)c(C#N)c45)c(C(F)(F)F)cc23)CCN1C(C)=O [Compound 117]
6.00 to 7.00	6.00 to 7.00	> 7.00	6.00 to 7.00	6.00 to 7.00	–	CN(c1nc(OC[C@@]23CCCN2C[C@H](F)C3)nc2c(F)c(-c3ccc(F)c4sc(N)c(C#N)c34)c(C(F)(F)F)cc12)[C@H]1CCS(=O)(=O)C1 [Compound 94, 2-amino-4-(4-(((S)-1,1-dioxidotetrahydrothiophen-3-yl)(methyl)amino)-8-fluoro-2-(((2R,7aS)-2-fluorotetrahydro-1H-pyrrolizin-7a(5H)-yl)methoxy)-6-(trifluoromethyl)quinazolin-7-yl)-7-fluorobenzo[b]thiophene-3-carbonitrile]
6.00 to 7.00	6.00 to 7.00	> 7.00	6.00 to 7.00	6.00 to 7.00	–	CN(c1nc(OC[C@@]23CCCN2C[C@H](F)C3)nc2c(F)c(-c3ccc(F)c4sc(N)c(C#N)c34)c(C(F)(F)F)cc12)C1CCC(O)CC1 (stereo partly shown) [Compound 65]
6.00 to 7.00	6.00 to 7.00	> 7.00	6.00 to 7.00	6.00 to 7.00	–	CN(c1nc(OC[C@@]23CCCN2C[C@H](F)C3)nc2c(F)c(-c3ccc(F)c4sc(N)c(C#N)c34)c(C(F)(F)F)cc12)[C@H]1C[C@H](O)C1 [Compound 23]
6.00 to 7.00	> 7.00	> 7.00	6.00 to 7.00	6.00 to 7.00	–	C[C@@H](O)C1CCN(c2nc(OC[C@@]34CCCN3C[C@H](F)C4)nc3c(F)c(-c4ccc(F)c5sc(N)c(C#N)c45)c(C(F)(F)F)cc23)CC1 [Compound 49]
6.00 to 7.00	> 7.00	> 7.00	6.00 to 7.00	6.00 to 7.00	–	CN(c1nc(OC[C@@]23CCCN2C[C@H](F)C3)nc2c(F)c(-c3ccc(F)c4sc(N)c(C#N)c34)c(C(F)(F)F)cc12)C(CO)CO [Compound 80]
6.00 to 7.00	5.00 to 6.00	> 7.00	5.00 to 6.00	5.00 to 6.00	–	CN(c1nc(OC[C@@]23CCCN2C[C@H](F)C3)nc2c(F)c(-c3ccc(F)c4sc(N)c(C#N)c34)c(C(F)(F)F)cc12)[C@H]1CCN(S(C)(=O)=O)C1 [Compound 119]
6.00 to 7.00	6.00 to 7.00	> 7.00	6.00 to 7.00	6.00 to 7.00	–	CCN(c1nc(OC[C@@]23CCCN2C[C@H](F)C3)nc2c(F)c(-c3ccc(F)c4sc(N)c(C#N)c34)c(C(F)(F)F)cc12)C(C)C [Compound 154]
6.00 to 7.00	6.00 to 7.00	> 7.00	6.00 to 7.00	6.00 to 7.00	–	CN(CC1(CO)CC1)c1nc(OC[C@@]23CCCN2C[C@H](F)C3)nc2c(F)c(-c3ccc(F)c4sc(N)c(C#N)c34)c(C(F)(F)F)cc12 [Compound 83]
< 5.00	< 5.00	–	< 5.00	< 5.00	< 6.00	CCN(C)c1nc(OC[C@@]23CCCN2C[C@H](F)C3)nc2c(F)c(-c3ccc(F)c4sc(N)c(C#N)c34)c(C(F)(F)F)cc12 (single isomer, unassigned) [Compound 197]

Reference: US20260042764A1, “COMPOSITIONS AND METHODS FOR INHIBITION OF KRAS” (TheRas, Inc., priority 2022, published 2026)
